Values joined by “and” are separate entries in the source; they are usually repeats but may differ in a detail not shown here. Equal entries are not always repeated. “Also recorded” adds a separate entry of the source.
What was measured:
[1] = test system: 1st stage experimental murine HAT infections; parameters: method as in PMID 19620327; details: DB844 at 25 mg/kg; cited from earlier work
[2] = Metabolism of DB844 in vervet monkey liver microsomes; type: in vitro ADME; details: 10 µM DB844, 0.2 mg/ml male vervet monkey liver microsomes
Description: The metabolism of DB844 was investigated using liver microsomes, prepared from a male vervet monkey by XenoTech, LLC (Lenexa, KS), in the presence of NADPH as described previously with modifications. Briefly, incubation mixtures (1 ml at pH7.4, in triplicate) contained 10 µM DB844 and 0.2 mg/ml monkey liver microsomes. After a 5-min equilibration period at 37°C, reactions were initiated with the addition of NADPH. Aliquots (50 µl) of the reaction mixtures were removed at 0, 5, 10, 15, 30, 60, 90, and 120 min and mixed with 25 µl of ice-cold acetonitrile. The mixtures were centrifuged (10,000×g for 5 min at 4°C) and the supernatants were analyzed by HPLC/UV using the same method as previously described for DB289 [22]. […] DB844 and metabolites were quantified using a single-concentration calibration curve generated using synthetic standards.

[3] = Safety monitoring (clinical, haematology, clinical chemistry) in infected DB844-treated monkeys; type: in vivo, vervet monkey; details: for RBC / Haematocrit / Hemoglobin / Mean corpuscular haemoglobin / Mean corpuscular volume / Platelet counts / WBC counts: infected monkeys
Description: Haematology samples (1 ml) were analysed using an AC^3diffT Coulter Counter (Miami, Florida, USA). Clinical chemistries were determined using a Humalyzer analyser system. Finally, plasma and CSF were analyzed for drug and metabolite concentrations using an HPLC-tandem Mass Spectrometry (HPLC-MS/MS) procedure as described below.

[4] = test system: GVR35 CNS model of HAT; parameters: method as in PMID 19620327; details: cited from earlier work
[5] = Pharmacokinetics (plasma and CSF) in infected monkeys after last DB844 dose
[6] = Toxicity study of 10-day oral DB844 regimens in uninfected monkeys
[7] = infected monkeys after oral DB844 treatment, days post last dose
[8] = DB844 6 mg/kg×14 days, 41 DPI (0 days post last dose)
[9] = DB844 6 mg/kg×14 days, 48 DPI (7 days post last dose)
[10] = DB844 6 mg/kg×14 days, 69 DPI (28 days post last dose)
[11] = DB844 6 mg/kg×14 days, 104 DPI (63 days post last dose)
[12] = plasma, after the 14th oral dose of DB844 at 6 mg/kg, n = 7, geometric mean, analyte = label
[13] = uninfected monkeys, DB844 5 mg/kg×10 days orally, monkeys 572F, 582M
[14] = uninfected monkeys, DB844 10 mg/kg×10 days orally, monkeys 541F, 578M, 10 mg/kg
[15] = uninfected monkeys, DB844 10 mg/kg×10 days orally, monkeys 541F, 578M, parenthesis = days post first dose when observed, 10 mg/kg
[16] = vervet 578, 10 mg/kg×10 days orally, uninfected

Structure (SMILES): CONC(=N)c1ccc(-c2ccc(-c3ccc(C(=N)NOC)cn3)o2)cc1 [DB844, N-methoxy-6-{5-[4-(N-methoxyamidino)phenyl]-furan-2-yl}-nicotinamidine]
- cure of 1st stage experimental murine HAT infection [1]: curative
- metabolites formed over a 120 min incubation period [2]: at least seven
- half-life at 10 µM ([2]; pH 7.4, NADPH, 37°C, pH7.4, read-out: microsomal half-life): ~14 min
- mean plasma ALT at its peak ([3]; group II, 6 mg/kg, after 7 daily drug doses (34 DPI), baseline 4.5±0.9 IU): 13.6±3.8 IU
- alkaline phosphatase change during and after drug administration ([3]; group II, 6 mg/kg×14 days): no significant changes
- plasma creatinine change from baseline ([3]; group II, 6 mg/kg×14 days): not significant
- total bilirubin and direct bilirubin changes ([3]; group II, 6 mg/kg×14 days): none of the changes were statistically significant
- increase of mean plasma AST above baseline ([3]; group II, 6 mg/kg×14 days, 24 hours post dosing): 3.3 times
- mean (± SE) plasma AST ([3]; group II, 6 mg/kg×14 days, 24 hours post dosing, baseline 37.0±4.8 IU): 121±21.6 IU
- blood urea nitrogen (BUN) as indicator of renal function ([3]; group II, 6 mg/kg×14 days, from 48 h post dosing (43 DPI)): mild and reversible decrease in kidney function
- increases in plasma transaminases (AST and ALT) ([3]; group II, efficacy study): 2–3 fold
- time to reversal of transaminase elevations after the last drug dose ([3]; group II, efficacy study): 4 to 7 days
- time to re-establishment of baseline RBC associated parameters [3, 7]: 28 to 63 days
- time to re-establishment of baseline platelet parameters [3, 7]: within seven
- drug related haematology changes ([3]; infected monkeys treated with oral DB844 (5 and 6 mg/kg)): no drug related haematology changes; also recorded: No DB844-related haematological aberrations
- RBC ([3]; DB844 6 mg/kg×14 days (28–41 DPI), 41 DPI (0 days post last dose)): 4.8±0.3, p<0.0001 ×10^6/µl
- Haematocrit [3, 8]: 31.6±1.6, p<0.0001%
- Hemoglobin [3, 8]: 11.2±0.7, p<0.0001 g/dl
- Mean corpuscular haemoglobin [3, 8]: 23.0±0.3 p<0.008 g/dl
- Mean corpuscular volume [3, 8]: 65.3±0.9, p = 0.0001 fl
- Platelet counts [3, 8]: 406.5±22.5 p = 0.05 ×10^3/µl
- WBC counts [3, 8]: 7.1±1.0, p = 0.12 ×10^3/µl
- Haematocrit [3, 9]: 31.8±1.6, p<0.0001%
- Hemoglobin [3, 9]: 11.5±0.6, p<0.0001 g/dl
- Mean corpuscular haemoglobin [3, 9]: 23.3±0.4 p = 0.07 g/dl
- Mean corpuscular volume [3, 9]: 64.8±0.9, p = 0.0001 fl
- Platelet counts [3, 9]: 390.7±32.4, p = 0.11 ×10^3/µl
- RBC [3, 9]: 4.9±0.2, p<0.004 ×10^6/µl
- WBC counts [3, 9]: 5.6±1.2, p = 0.9 ×10^3/µl
- Haematocrit [3, 10]: 43.8±1.6, p = 0.91%
- Hemoglobin [3, 10]: 12.8±0.5, p = 0.15 g/dl
- Mean corpuscular haemoglobin [3, 10]: 23.4±0.6, p = 0.13 g/dl
- Mean corpuscular volume [3, 10]: 79.8±1.4, p = 0.11 fl
- Platelet counts [3, 10]: 332.2±11.9, p = 0.78 ×10^3/µl
- RBC [3, 10]: 5.5±0.2, p = 0.55 ×10^6/µl
- WBC counts [3, 10]: 5.9±0.8, p = 0.8 ×10^3/µl
- Haematocrit [3, 11]: 46.7±2.7, p = 0.91%
- Hemoglobin [3, 11]: 14.1±0.8, p = 0.11 g/dl
- Mean corpuscular haemoglobin [3, 11]: 23.3±0.5 p = 0.21 g/dl
- Mean corpuscular volume [3, 11]: 77.0±1.5, p = 0.21 fl
- Platelet counts [3, 11]: 294.3±17.4 p = 0.55 ×10^3/µl
- RBC [3, 11]: 6.1±0.3 p = 0.02 ×10^6/µl
- WBC counts [3, 11]: 5.1±0.1, p = 0.4 ×10^3/µl
- cure of 2nd stage experimental murine HAT infection ([4]; DB844 at 100 mg/kg): curative
- animals cured ([4]; mice, oral DB844 (100 mg/kg×5 days)): 5/5
- detection in CSF after the 1 h post dose sample ([5]; after last dose of DB844 6 mg/kg×14 days): not detected thereafter
- concentration at 1 h ([5]; monkey, CSF, oral, 6 mg/kg): 17 nM
- half-life ([5]; monkey, in vivo, po, 6 mg/kg): 348 min
- CL/F ([5]; monkey, plasma, po, 6 mg/kg): 167 mL/min/kg
- half-life ([5]; monkey, plasma, po, 6 mg/kg): 346 min
- Tmax ([5]; monkey, plasma, po, 6 mg/kg, Tmax, plasma, after the 14th oral dose of DB844 at 6 mg/kg, n = 7, median, analyte = label): 57.6 min
- Tmax ([5]; monkey, plasma, po, 6 mg/kg, time of peak plasma concentration, after the last (14th) dose of DB844 at 6 mg/kg, analyte = label): 60 min
- AUC(0-∞) [5, 12]: 70 nmol·days/L
- AUClast [5, 12]: 68 nmol·days/L
- monkeys in which no adverse clinical signs of toxicity were elicited ([6]; uninfected monkeys, 5 mg/kg/day orally for 10 days): 2/2
- monkeys with overt toxicity ([6]; uninfected monkeys, 10 mg/kg/day orally for 10 days): 1/2
- monkeys with overt toxicity ([6]; uninfected monkeys, 20 mg/kg/day orally (8 doses given)): 2/2
- weight loss (maximum among adverse clinical events) ([6]; uninfected monkeys, 5, 10 or 20 mg/kg/day orally): up to 10.5%
- Adverse clinical events: GIT changes [6, 13]: None
- Adverse clinical events: Jaundice [6, 13]: None
- Adverse clinical events: Reduced feed intake [6, 13]: None
- Daily doses completed [6, 13]: 10/10
- Euthanised due to toxicity [6, 13]: No
- % weight loss ([6]; uninfected monkeys, DB844 5 mg/kg×10 days orally, monkeys 572F, 582M, 5 mg/kg): 1.8% and 4.9%
- Daily doses completed ([6]; uninfected monkeys, DB844 10 mg/kg×10 days orally, monkeys 541F, 578M): 10/10
- % weight loss [6, 14]: 4.6% and 10.5%
- Adverse clinical events: Jaundice [6, 14]: None and yes
- Adverse clinical events: GIT changes [6, 15]: None and Yes (16)
- Adverse clinical events: Reduced feed intake [6, 15]: Yes (11); also recorded: Yes (14)
- Euthanised due to toxicity ([6]; uninfected monkeys, DB844 10 mg/kg×10 days orally, monkeys 541F, 578M, parenthesis = days post first dose, 10 mg/kg): No and Yes (16)
- Adverse clinical events: Jaundice ([6]; uninfected monkeys, DB844 20 mg/kg×10 days orally, monkeys 543F, 606M): yes
- % weight loss ([6]; uninfected monkeys, DB844 20 mg/kg×10 days orally, monkeys 543F, 606M, 20 mg/kg): 9.1% and 6.5%
- Daily doses completed ([6]; uninfected monkeys, DB844 20 mg/kg×10 days orally, monkeys 543F, 606M, dosing withdrawn on overt toxicity): 8/10
- Adverse clinical events: GIT changes ([6]; uninfected monkeys, DB844 20 mg/kg×10 days orally, monkeys 543F, 606M, parenthesis = days post first dose when observed): Yes (8)
- Adverse clinical events: Reduced feed intake ([6]; uninfected monkeys, DB844 20 mg/kg×10 days orally, monkeys 543F, 606M, parenthesis = days post first dose when observed, 20 mg/kg): Yes (8); also recorded: Yes (9)
- Euthanised due to toxicity ([6]; uninfected monkeys, DB844 20 mg/kg×10 days orally, monkeys 543F, 606M, parenthesis = days post first dose, 20 mg/kg): Yes (9); also recorded: Yes (10)
- monkeys in which the dose was well tolerated ([6]; uninfected monkeys, middle dose 10 mg/kg×10 days): 1/2
- mean corpuscular volume (MCV) after rise from 76.6 [6, 16]: 86.9 fL
- red cell distribution width (RDW) after rise from 15 [6, 16]: 18.4
- rise in mean corpuscular volume (MCV) [6, 16]: 13%
- rise in red cell distribution width (RDW) [6, 16]: 23%

From PMC3404106, “Pharmacology of DB844, an Orally Active aza Analogue of Pafuramidine, in a Monkey Model of Second Stage Human African Trypanosomiasis” (PLoS Neglected Tropical Diseases, 2012)
